Reference: PMC3274588 (The Plant Journal, 2011)
Changes are numbered by the printed parent chain. Where two headings read alike, the source gives them in different places.

How the values were obtained:
[1] = target: T1, ACD2 (ACCELERATED CELL DEATH 2; ACD2^40-320; Red Chlorophyll Catabolite Reductase) (Arabidopsis thaliana, UniProt Q8LDU4); experiment: intrinsic tryptophan fluorescence quenching; type: binding
T1 sequence (Q8LDU4 40-319): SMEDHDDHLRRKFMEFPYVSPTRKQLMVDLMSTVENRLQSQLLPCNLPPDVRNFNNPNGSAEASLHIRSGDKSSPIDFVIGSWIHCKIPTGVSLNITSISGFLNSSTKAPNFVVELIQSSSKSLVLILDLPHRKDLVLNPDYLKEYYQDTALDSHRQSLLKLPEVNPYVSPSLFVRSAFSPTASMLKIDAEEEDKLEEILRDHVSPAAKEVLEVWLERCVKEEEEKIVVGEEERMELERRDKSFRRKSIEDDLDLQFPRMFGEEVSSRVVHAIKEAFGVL

[2] = target: T2, ACD2 (ACCELERATED CELL DEATH 2; ACD2^40-320; Red Chlorophyll Catabolite Reductase) (Arabidopsis thaliana, UniProt Q8LDU4, E154A/D291H); experiment: intrinsic tryptophan fluorescence quenching; type: binding; details: 0.1 μM protein, 50 mM Na2HPO4 pH 8.0, 25 mM NaCl, 22°C, excitation 296 nm
T2 sequence (Q8LDU4 40-319 E154A/D291H): T1 sequence (Q8LDU4 40-319) with E115A, D252H

| SMILES | Kd [1] [nM] | Kd [2] [nM] | Kd ([1]; 0.1 μM protein, 50 mM Na2HPO4 pH 8.0, 25 mM NaCl, 22°C, excitation 296 nm) [nM] |
| --- | --- | --- | --- |
| C=CC1=C(C)c2cc3[nH]c(cc4nc(cc5[nH]c(cc1n2)c(C)c5CCC(=O)O)C(CCC(=O)O)=C4C)c(C)c3C=C [PPIX] | 310 ± 20 | – | – |
| C=CC1=C(C)/C(=C/C2=NC(=C3\c4[nH]c(Cc5[nH]c(C=O)c(C)c5CC)c(C)c4C(=O)[C@@H]3C(=O)OC)/[C@@H](CCC(=O)O)[C@@H]2C)NC1=O [RCC] | – | 340 ± 30 | 360 ± 30 |
